Reference: US20260354380A1, “PYRAZOLO PESTICIDAL COMPOUNDS” (BASF SE, priority 2022, published 2026)
Like-named read-outs stand apart in the source and are kept apart here.

What was measured:
Assay type in all cases: in vivo
Anthonomus grandis = test: Action on Boll Weevil (Anthonomus grandis); details: for mortality at 800 ppm: Anthonomus grandis, 120 h, read-out: mortality in comparison with untreated controls
Outline: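 Diet in 96-well plates, seeded with 5-10 A. grandis eggs, received a spray of formulated compound (25% DMSO in water) at a range of concentrations, duplicated. Mortality of eggs and larvae was judged by eye after 5 days at about 25±1 °C, 75±5% relative humidity.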

Aedes aegypti = test: whole plant or invertebrate; details: for mortality at 800 ppm: Aedes aegypti, 48 h, read-out: mortality in comparison with untreated controls; for mortality in comparison with untreated controls: 800 ppm, larvae, 2 days
Outline: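 Visual larval mortality was assessed 2 days after treatment (28±1 °C, 80±5% RH). Formulations of compounds or mixtures (75% water/25% DMSO) were applied by micro-atomizer onto diet of 5-15 newly hatched larvae per water-filled well, two replicates per concentration.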

Dichromothrips corbetti = test: Action on Orchid Thrips (Dichromothrips corbetti); details: for mortality at 300 ppm: Dichromothrips corbetti, read-out: mortality in comparison with untreated controls
Procedure: Example B2: Action on Orchid Thrips (Dichromothrips corbetti)
Dichromothrips corbetti adults used for bioassay were obtained from a colony maintained continuously under laboratory conditions. For testing purposes, the test compound is diluted in a 1:1 mixture of acetone: water (vol: vol), plus Kinetic® HV at a rate of 0.01% v/v.
Thrips potency of each compound was evaluated by using a floral-immersion technique. All petals of individual, intact orchid flowers were dipped into treatment solution and allowed to dryin Petri dishes. Treated petals were placed into individual re-sealable plastic along with about 20 adult thrips. All test arenas were held under continuous light and a temperature of about 28 °C for duration of the assay. After 3 days, the numbers of live thrips were counted on each petal. The percent mortality was recorded 72 hours after treatment.

Spodoptera eridania = test: Action on Southern Armyworm (Spodoptera eridania), 2nd Instar Larvae; details: for mortality at 300 ppm: read-out: mortality in comparison with untreated controls
Outline: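 2nd-instar Spodoptera eridania larvae (about 10–11 per pot) confined on sprayed, dried Lima bean plants (1st true leaf stage) in sealed bags. Spray solutions: acetone/water 1:1 plus 0.01% surfactant. Held 4 days near 25 °C, 20–40% RH; assessed for mortality and feeding reduction against untreated controls.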

Heliothis virescens = test: Action on Tobacco Budworm (Heliothis virescens); details: for mortality at 800 ppm: Heliothis virescens, 120 h, read-out: mortality in comparison with untreated controls
Outline: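 Eggs (15-25 per well) on diet were held 5 days at about 28±1 °C, 80±5% RH, then egg and larval mortality was scored by eye. Beforehand the diet had been sprayed with compound dilutions formulated in water/DMSO 75:25 v/v, in two replicates.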

Plutella xylostella [1] = test: Action on Diamond Back Moth (Plutella xylostella), cabbage leaf dip, 3rd instar larvae; details: for mortality at 300 ppm: read-out: mortality in comparison with untreated controls
Outline: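 Cabbage leaves dipped in compound solution (1:1 water:acetone, 0.01% v/v surfactant), air-dried, then infested with ten 3rd-instar larvae in petri dishes on moist filter paper. Mortality scored at 72 h after treatment; feeding damage rated on a 0–100% scale.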

Plutella xylostella [2] = test: Action on Diamond Back Moth (Plutella xylostella), microtiter plates, insect diet, eggs; details: 800 ppm; egg and larval mortality; 5 days
Procedure: Example B8: Action on Diamond Back Moth (Plutella xylostella)
For evaluating control of diamond back moth (Plutella xylostella) the test unit consisted of 96-well-microtiter plates containing an insect diet and 15-25 P. xylostella eggs. The compounds or mixtures were formulated using a solution containing 75% water and 25% DMSO. Different concentrations of formulated compounds or mixtures were sprayed onto the insect diet at 5 μl, using a custom-built micro atomizer, at two replications. For experimental mixtures in these tests identical volumes of both mixing partners at the desired concentrations respectively, were mixed together. After application, microtiter plates were incubated at 28±1 °C, 80±5% RH for 5 days. Egg and larval mortality was then visually assessed.

[3] = 800 ppm, egg and larval mortality, 5 days
[4] = 300 ppm, adults, 72 hours after treatment
[5] = Spodoptera eridania, 96 h, 300 ppm, 2nd instar larvae, 4 days after treatment
[6] = Plutella xylostella, foliar, 300 ppm, 3rd instar larvae, 72 hours after treatment
[7] = Plutella xylostella, foliar, 72 h
[8] = 300 ppm, 2nd instar larvae, 4 days after treatment
[9] = 300 ppm, 3rd instar larvae, 72 hours after treatment

Compound | mortality at 800 ppm (Aedes aegypti) [%] | mortality in comparison with untreated controls (Anthonomus grandis; [3]) | mortality in comparison with untreated controls (Aedes aegypti) | mortality in comparison with untreated controls (Dichromothrips corbetti; [4]) | mortality in comparison with untreated controls (Spodoptera eridania; [8]) | mortality in comparison with untreated controls (Heliothis virescens; [3]) | mortality in comparison with untreated controls (Plutella xylostella [1]; [9]) | mortality in comparison with untreated controls (Plutella xylostella [2]) | other results
Cc1ccc(C(C)C)c(N2C(=O)CS/C2=N\C(=O)Nc2ccc(-n3cc(NC(=O)c4ccc(OC(F)(F)F)cc4)c(C)n3)cc2C)c1 [Example C-1, N-[1-[4-[[(Z)-[3-(2-isopropyl-5-methyl-phenyl)-4-oxo-thiazolidin-2-ylidene]carbamoyl]amino]-3-methyl-phenyl]-3-methyl-pyrazol-4-yl]-4-(trifluoromethoxy)benzamide] | ≥ 50 |  |  |  |  |  |  |  | mortality at 800 ppm (Anthonomus grandis; [3]): ≥ 75%; mortality at 300 ppm (Dichromothrips corbetti; [4]): ≥ 75%; mortality at 300 ppm (Spodoptera eridania; [5]): ≥ 75%; mortality at 800 ppm (Heliothis virescens; [3]): ≥ 75%; mortality at 300 ppm (Plutella xylostella [1]; [6]): ≥ 75%
Cc1ccc(C(C)C)c(N2C(=O)CS/C2=N\C(=O)Nc2ccc(-n3cc(N(C)C(=O)c4ccc(OC(F)(F)F)cc4)c(C)n3)cc2)c1 [Example C-2, N-[1-[4-[[(Z)-[3-(2-isopropyl-5-methyl-phenyl)-4-oxo-thiazolidin-2-ylidene]carbamoyl]amino]phenyl]-3-methyl-pyrazol-4-yl]-N-methyl-4-(trifluoromethoxy)benzamide] | ≥ 50 |  |  |  |  |  |  |  | mortality at 800 ppm (Anthonomus grandis; [3]): ≥ 75%; mortality at 300 ppm (Dichromothrips corbetti; [4]): ≥ 75%; mortality at 300 ppm (Spodoptera eridania; [5]): ≥ 75%; mortality at 10 ppm (Spodoptera eridania; Spodoptera eridania, 96 h, Table R-1 comparative data, dose 10 ppm, test species PRODER, procedure analogous to B7): 82.5%; mortality at 800 ppm (Heliothis virescens; [3]): ≥ 75%; mortality at 10 ppm (Plutella xylostella [1]; Plutella xylostella, foliar, 72 h, Table R-1 comparative data, dose 10 ppm, test species PLUTMA, procedure analogous to B6): 100%; mortality at 300 ppm (Plutella xylostella [1]; [6]): ≥ 75%
Cc1ccc(C(C)C)c(N2C(=O)CS/C2=N\C(=O)Nc2ccc(-n3nc(C)c(N(C)C(=O)c4ccc(OC(F)(F)F)cc4)c3Cl)cc2)c1 [Example C-3, N-[5-chloro-1-[4-[[(Z)-[3-(2-isopropyl-5-methyl-phenyl)-4-oxo-thiazolidin-2-ylidene]carbamoyl]amino]phenyl]-3-methyl-pyrazol-4-yl]-N-methyl-4-(trifluoromethoxy)benzamide] | ≥ 50 |  |  |  |  |  |  |  | mortality at 800 ppm (Anthonomus grandis): ≥ 75%; mortality at 300 ppm (Dichromothrips corbetti; 72 h): ≥ 75%; mortality at 300 ppm (Spodoptera eridania; Spodoptera eridania, 96 h): ≥ 75%; mortality at 800 ppm (Heliothis virescens): ≥ 75%; mortality at 300 ppm (Plutella xylostella [1]; [7]): ≥ 75%
Cc1ccc(C(C)C)c(N2C(=O)CS/C2=N\C(=O)Nc2ccc(-n3nc(C)c(NC(=O)c4ccc(OC(F)(F)F)cc4)c3C)cc2Cl)c1 [Example C-4, N-[1-[3-chloro-4-[[(Z)-[3-(2-isopropyl-5-methyl-phenyl)-4-oxo-thiazolidin-2-ylidene]carbamoyl]amino]phenyl]-3,5-dimethyl-pyrazol-4-yl]-4-(trifluoromethoxy)benzamide] | ≥ 50 |  |  |  |  |  |  |  | mortality at 800 ppm (Anthonomus grandis): ≥ 75%; mortality at 300 ppm (Dichromothrips corbetti; 72 h): ≥ 75%; mortality at 300 ppm (Spodoptera eridania; Spodoptera eridania, 96 h): ≥ 75%; mortality at 800 ppm (Heliothis virescens): ≥ 75%; mortality at 300 ppm (Plutella xylostella [1]; [7]): ≥ 75%
Cc1nn(-c2ccc(NC(=O)/N=C3\SCC(=O)N3c3cc(C4CC4)ccc3C(C)C)c(F)c2)cc1NC(=O)c1ccc(OC(F)(F)F)cc1 [Example C-7] |  | at least 75% | at least 50% | at least 75% | at least 75% | at least 75% | at least 75% |  | 
Cc1ccc(C(C)C)c(N2C(=O)CSC2=NC(=O)Nc2ccc(-n3cc(NC(=O)c4ccc(OC(F)(F)F)cc4)c(C)n3)cc2)c1 [Example C-9] |  | at least 75% | at least 50% | at least 75% | at least 75% | at least 75% | at least 75% |  | 
Cc1ccc(C(C)C)c(N2C(=O)CS/C2=N\C(=O)Nc2ccc(-n3nc(C)c(NC(=O)c4ccc(OC(F)(F)F)cc4)c3C)nc2)c1 [Example C-22] |  |  |  | at least 75% | at least 75% |  | at least 75% |  | 
COc1ccc(C(C)C)c(N2C(=O)CSC2=NC(=O)Nc2ccc(-n3nc(C)c(NC(=O)c4ccc(OC(F)(F)F)cc4)c3C)cc2Cl)c1 [Example C-44] |  | at least 75% | at least 50% | at least 75% |  | at least 75% | at least 75% |  | 
Cc1ccc(C(C)C)c(N2C(=O)CSC2=NC(=O)Nc2ccc(-n3nc(C)c(NC(=O)c4cc(F)c(F)c(F)c4)c3C)cc2)c1 [Example C-117] |  | at least 75% | at least 50% |  | at least 75% | at least 75% |  | at least 75% | 
Cc1ccc(C(C)C)c(N2C(=O)CSC2=NC(=O)Nc2ccc(-n3nc(C)c(NC(=O)c4ccc(Cl)c(C#N)c4)c3C)cc2)c1 [Example C-118] |  | at least 75% |  |  |  |  | at least 75% | at least 75% | 
Cc1ccc(C(C)C)c(N2C(=O)CSC2=NC(=O)Nc2ccc(-n3nc(C)c(NC(=O)c4cc(F)c(F)cc4F)c3C)cc2)c1 [Example C-120] |  | at least 75% | at least 50% |  | at least 75% | at least 75% |  | at least 75% | 
Cc1nn(-c2ccc(NC(=O)NC(=S)Nc3ccccc3C(C)C)cc2)cc1NC(=O)c1ccc(OC(F)(F)F)cc1 [Example C-126] |  | at least 75% | at least 50% |  | at least 75% | at least 75% |  | at least 75% | 
Cc1ccc(C(C)C)c(N2CCSC2=NC(=O)Nc2ccc(-n3nc(C)c(NC(=O)c4ccc(OC(F)(F)F)cc4)c3C)cc2Cl)c1 [Example C-128] |  | at least 75% | at least 50% |  | at least 75% | at least 75% |  | at least 75% | 
